Assay results: US20090117089A1, “GLYCOLIPIDS AND ANALOGUES THEREOF AS ANTIGENS FOR NK T CELLS” (The Rockefeller University, priority 2005, published 2009)
Entries after “also recorded” stand apart in the source; their conditions may differ.

Key:
[1] = tested on: Vα24i human NKT cell line; assay: In vitro cytokine secretion assay using human NKT cell lines; format: cell-based; details: for IFN-γ secretion / IL-4 secretion: CD14+ immature dendritic cells, 10 μg/ml glycolipid (1-10 μg/ml for 3-O-sulfo-α-galactosylceramide), 10 IU/ml IL-2
Experimental: (§1) Human NKT cell lines, expressing the Vα24i T cell receptor as well as CD161, were generated as follows: Anti-CD161 monoclonal antibodies, and anti-CD14 monoclonal antibodies, each coupled to magnetic beads (Miltenyi biotec, Auburn, Calif.), were used sequentially to isolate CD161^+ cells and CD14^+ cells from leukopaks. Immature dendritic cells were generated from the CD14^+ cells after a two-day incubation in the presence of 300 U/ml GM-CSF (R&D systems, Minneapolis, Minn.) and 100 U/ml IL-4 (R&D systems, Minneapolis, Minn.). Following irradiation with 2000 rads, the immature dendritic cells were co-cultured with syngeneic CD161^+ cells in the presence of 100 ng/ml of alpha-galactosylceramide and 10 IU/ml of IL-2 (Invitrogen, Carlsbad Calif.) for 10 to 14 days. After stimulating the CD161^+ cells a second time with alpha-galactosylceramide-pulsed, irradiated immature dendritic cells, NKT cell lines were shown by flow cytometry to express both CD161^+ and V 24i TCR (99% purity).
(§2) IFN-γ and IL-4 secretion by the Vα 24i human NKT cell line was determined by ELISA (BD Pharmingen, San Diego, Calif.) after culture for 16 hours. For these assays, 1×10^5 Vα 24i human NKT cells were co-cultured with 4×10^5 irradiated, immature CD14^+ dendritic cells, in the presence of the glycolipid compounds at 10 μg/ml in a 96-well flat-bottom plate.
as §1, with “of 100-0.1” for “of 100”
In some cases, Hela cells were transfected with a human CD1d construct [Xing et al. 2005. Bioorg Med Chem 13: 2907], and were used to present the glycolipids, via pulsing with the respective compounds at the indicated concentration, to NKT lines.
as §2, with “IFN-γ” for “IFN-γ and IL-4”

[2] = tested on: human CD161+ NK+NKT cells; assay: Cytokine secretion by human CD161+ NK+NKT cells in the presence of CD14+ DCs; format: cell-based
Experimental: Human Vα24i NKT cells response to synthetic Sphingomonas and sulfatide glycolipids, in terms of IFN-γ (a) and IL-4 (b) release after culture with 4×10^5 autologous immature CD14+ dendritic cells pulsed with the indicated glycolipid antigens at 10 μg/ml. Negative controls included similar numbers of NKT cells and dendritic cells, cultured without added glycolipid. Data represent mean±S.D. of duplicate well; (c) in vitro INF-γ secretion by human CD161^+ NK+NKT cells (2×10^5/well) in the presence of CD14^+ DCs (4×10^5/well) and 20 μg/ml of various glycolipids; (d) in vitro IL-4 secretion by human CD161^+ NK+NKT cells (2×10^5/well) in the presence of CD14^+ DCs (4×10^5/well) and 20 μg/ml of various glycolipids.

[3] = tested on: CD1d reactive T cell hybridomas with an invariant Vα14i T cell antigen receptor; assay: 1.2 hybridoma assay (IL-2 release by ELISA); format: cell-based, mouse; details: for IL-2 production (relative activity of fatty acyl chain analogs): 0.0001-1 μg/ml, CD1d transfected A20 cells; for IL-2 secretion: CD1d coated plates, Sphingomonas glycolipids and analogues
Experimental: As a measure of T cell activation, IL-2 release into the tissue culture medium was measured after 16 hours culture by an ELISA assay.
As a measure of T cell activation, IL-2 and IFN-γ release into the tissue culture medium was measured after 16 hours culture by an ELISA assay.

[4] = tested on: spleen CD11c+ DCs; assay: DC maturation in vivo (surface markers, flow cytometry); set-up: species or system mouse; details: mouse, in vivo
Experimental: 2×10^7 irradiated J558-Ld^− cells, were injected i.v. or s.c. into Balb/c mice with or without α-Gal Cer as a DC maturation stimulus. In some experiments we compared α-Gal Cer to agonistic anti-CD40 mAb (1C10, 25 μg i.p.) or the toll like receptor ligands, poly IC ([…], Invivogen) or lipopolysaccharide (20 μgm, Sigma). The mice had been given CFSE-labeled PICTL CD8^+ T cells i.v. 1 d earlier, or were naive animals. In some experiments, mice were sacrificed 3 d later, and T cell division and activation in spleen were analyzed by flow cytometry. Additionally, 7 d or 2 months later, 5×10^6 live J558 tumor cells were inoculated subcutaneously. 5×10^6 Meth A fibrosarcoma was used as a control tumor for challenge. Tumor cell growth was measured with calipers every other day. Mice were scored positive for tumor as soon as tumors became palpable and grew progressively. Mice were euthanized when tumor size exceeded 400 mm^2.
T-cell division, phagocytosis of CFSE-labeled tumor cells and acquisition of cell surface-activation markers were determined by flow cytometry. Briefly, spleens were harvested and low-density splenocytes were stained with CD11c-APC and CD8α-PE, CD11b-PE, B220-PE or CD4-PE for the up-take examination. For in vivo proliferation of P1CTL T-cells, spleens were harvested and the splenocytes suspension was staining with CD8α-Cy, Vα8α-PE, CD25-PE, CD62L-PE. For intracellular cytokine staining, splenocytes were stimulated in vitro with 1 µg/ml P1A peptide in 5 μg/ml brefeldin A (Sigma-Aldrich) at 37° C. for 4 hrs. The cells were first stained with CD8α-Cy-Chrome™, fixed and permeabilized with cytofix-cytoperm buffer (BD Biosciences), and stained with PE conjugated mAbs to IL-2 or IFN-γ.
Flow cytometry. Acquisition of cell surface-activation markers was determined by flow cytometry. […] Spleen CD11c+ DCs were isolated using anti-CD11c magnetic beads and stained with CD11c-FITC, CD8α− allophycocyanin, and PE-Conjugated I-Ad, CD40, CD80, CD86, CD119, B7-H1 and B7-DC. We used a FACSCalibur™ with data analysis in FlowJo (Tree Star).

[5] = tested on: Vα24i human NKT cell line; assay: In vitro cytokine secretion assay using human NKT cell lines; format: cell-based; details: CD14+ DCs; 100-0.1 ng/mL; all doses

## 3-O-sulfo-β-galactosylceramide [Compound 10]
[1]
  IFN-γ secretion: elicit both IFN-γ and IL-4 production
  IL-4 secretion: elicit both IFN-γ and IL-4 production
[2]
  affinity for NKT lymphocytes: minimal to no affinity for NKT lymphocytes

## CCCCCCCCCCCCCCC[C@@H](O)[C@H](COC1OC(C(=O)O)C(O)C(O)C1O)NC(=O)CCCCCCCCCCCCC (some centres unmarked) [Compound 5]
[1]
  reactivity of human Vα24i NKT cells: conserved

## 2-Hexacosylamino-1-O-(3-O-sulfo-α-D-galactopyranosyl)-D-ribo-1,3,4-octadecantriol, Sodium Salt [Compound 4]
[1]
  IFN-γ secretion: approximately half that of α-GalCer
  IL-4 secretion: approximately half that of α-GalCer
[3]
  biological activity in the 1.2 hybridoma assay (IL-2 secretion): caused significant IL-2 secretion
[3]; data not shown
  activity relative to αGalCer (dose response curves, IL-2): somewhat less active than αGalCer
[3]; glycolipid at 10 μg/ml, 16 hours culture
  IL-2 release from the hybridomas: stimulated significant IL-2 release
[2]; glycolipid presented by CD14+ DCs, 10-20 μg/mL
  IL-4 secretion by human NKT cells: efficiently stimulated IL-4 and IFN-γ secretion
[2]; glycolipid presented by CD14+ DCs, 10-20 μg/mL, compared to α-GalCer, Sodium Salt
  interferon-γ secretion by human NKT cells: superior; also recorded: efficiently stimulated IL-4 and IFN-γ secretion

## poly IC
[4]
  phenotypic changes of DC maturation (CD40, CD86, MHC class II, B7-H1, B7-DC up, CD119 down): induced similar phenotypic changes of maturation

## CCCCCCCCCCCCCC[C@@H](O)[C@@H](O)[C@H](COC1OC(CO)C(O)C(O)C1O)NC(=O)CCCCCc1ccccc1 (some centres unmarked) [Compound 83]
[1]
  selectivity IFN-γ versus IL-4 production: high ratio of IFN-γ/IL-4 activity
[3]
  IL-2 production (relative activity of fatty acyl chain analogs): significant increase of IL-2 production
[5]
  IFN-γ secretion compared to KRN: consistently stimulating greater IFN-γ secretion

## CCCCCCCCCCCCCCC[C@@H](O)[C@H](COC1OC(C(=O)O)C(O)C(O)C1O)NC(=O)[C@@H](O)CCCCCCCCCCCC (some centres unmarked) [Compound 6]
[1]
  reactivity of human Vα24i NKT cells: conserved

## CCCCCCCCCCCCCC[C@@H](O)[C@@H](O)[C@H](COC1OC(CO)C(O)C(O)C1O)NC(=O)CCCCCCCc1ccccc1 (some centres unmarked) [Compound 84]
[3]
  IL-2 production (relative activity of fatty acyl chain analogs): significant increase of IL-2 production
[5]
  IFN-γ secretion compared to KRN: consistently stimulating greater IFN-γ secretion

## CCCCCCCCCCCCCCC[C@@H](O)[C@H](COC1OC(CO)C(O)C(O)C1O)NC(=O)CCCCCCCCCCCCC (some centres unmarked) [Compound 7]
[3]
  IL-2 secretion: greater IL-2 secretion

## CCCCCCCCCCCCCCC[C@@H](O)[C@H](COC1OC(CO)C(O)C(O)C1O)NC(=O)[C@@H](O)CCCCCCCCCCCC (some centres unmarked) [Compound 8]
[3]
  IL-2 secretion: less able to activate IL-2 secretion when compared with 5
